Key:
NCI-H2722 (Mesothelioma) = experiment: combination Emax (second highest fraction inhibited in the dose matrix, 72 h); higher = more inhibition; extreme values may be limits of the assay
Procedure, shortened: (§1)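 Cell lines in DMEM/F12 or RPMI with 10% FBS were plated in 1536-well plates, held 24 hours at 37°C, 5% CO2, then given two-drug dose matrices for 72 hours (DMSO typically 0.2%). Viability was read by CellTiter-Glo 2.0 luminescence and scaled as inhibition from 0 (vehicle wells) to 1 (blank wells). Combination Emax is the second-highest inhibition in the matrix; Bliss excess is observed combination effect minus expected EA + EB − EA·EB, EA and EB being single-agent effects.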

[1] = system: Detroit562 (Head and Neck Carcinoma); experiment: as above
Procedure, shortened: as §1

[2] = system: TGBC1TKB (Biliary Tract Carcinoma); experiment: as above
Procedure, shortened: as §1

[3] = system: FTC-133 (Thyroid Gland Carcinoma); experiment: as above
Procedure, shortened: as §1

[4] = system: HuCCT1 (Biliary Tract Carcinoma); experiment: Bliss excess, mean over the matrix (fraction); higher = more synergy
Procedure, shortened: as §1

[5] = system: WSU-NHL (B-Cell Non-Hodgkin's Lymphoma); experiment: as above
Procedure, shortened: as §1

NCI-H2052 (Mesothelioma) = experiment: as above
Procedure, shortened: as §1

[6] = system: BE-13 (T-Lymphoblastic Leukemia); experiment: as above
Procedure, shortened: as §1

[7] = system: OVCAR-5 (Ovarian Carcinoma); experiment: as above
Procedure, shortened: as §1

GAMG (Glioblastoma) = experiment: as above
Procedure, shortened: as §1

[8] = system: L-428 (Hodgkin's Lymphoma); experiment: as above
Procedure, shortened: as §1

BPH-1 (Non-Cancerous) = experiment: as above
Procedure, shortened: as §1

[9] = system: BFTC-909 (Kidney Carcinoma); experiment: as above
Procedure, shortened: as §1

[10] = system: SW1573 (Lung Adenocarcinoma); experiment: as above
Procedure, shortened: as §1

[11] = system: LNZTA3WT4 (Low Grade Glioma); experiment: as above
Procedure, shortened: as §1

[12] = system: TGBC1TKB (Biliary Tract Carcinoma); experiment: as above
Procedure, shortened: as §1

[13] = system: NCI-H209 (Small Cell Lung Carcinoma); experiment: as above
Procedure, shortened: as §1

[14] = system: FTC-133 (Thyroid Gland Carcinoma); experiment: as above
Procedure, shortened: as §1

KS-1 (Glioblastoma) = experiment: as above
Procedure, shortened: as §1

[15] = system: OE21 (Esophageal Squamous Cell Carcinoma); experiment: as above
Procedure, shortened: as §1
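For Bliss excess, mean over the matrix in this document: after 72 h of two-drug dosing.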

Compound | combination Emax (NCI-H2722 (Mesothelioma)) | combination Emax [1] | combination Emax [2] | combination Emax [3] | Bliss excess [4] | Bliss excess [5] | Bliss excess (NCI-H2052 (Mesothelioma)) | Bliss excess [6] | Bliss excess [7] | Bliss excess (GAMG (Glioblastoma)) | Bliss excess [8] | Bliss excess (BPH-1 (Non-Cancerous)) | Bliss excess [9] | Bliss excess [10] | Bliss excess [11] | Bliss excess [12] | Bliss excess [13] | Bliss excess [14] | Bliss excess (KS-1 (Glioblastoma)) | Bliss excess [15]
Cc1cc2ncnn2cc1Nc1ncc2c(n1)n(C1CCOCC1)c(=O)n2C [AZD7648] + CN(C)CCCOc1ccc(-c2ccc3ncc4c(c3c2)n(C2CCOCC2)c(=O)n4C)cn1 [AZD0156] (first compound max 10 µM, 7x7, partner max 1 µM) | 0.209 | 0.419 | 0.398 | 0.241 | 0.0032 | -0.0531 | 0.0038 | -0.0188 | -0.0244 | -0.058 | 0.069 | 0.0049 | -0.0032 | -0.0114 | 0.0113 | -0.027 | 0.048 | 0.0239 | -0.068 | -0.0629
Cc1cc2ncnn2cc1Nc1ncc2c(n1)n(C1CCOCC1)c(=O)n2C [AZD7648] + C[C@@H]1COCCN1C2=NC(=NC(=C2)C3(CC3)[S@](=N)(=O)C)C4=C5C=CNC5=NC=C4 [AZD6738] (first compound max 10 µM, 7x7, partner max 10 µM) | 0.347 | 0.848 | 0.526 | 0.677 | -0.0087 | -0.0181 | 0.0186 | -0.0121 | 0.0263 | 0.0064 | -0.0223 | -0.0251 | -0.0204 | 0.0293 | -0.0165 | -0.002 | -0.0155 | -0.0369 | -0.0011 | -0.0793
Cc1cc2ncnn2cc1Nc1ncc2c(n1)n(C1CCOCC1)c(=O)n2C [AZD7648] + O=C(c1cc(Cc2n[nH]c(=O)c3ccccc23)ccc1F)N1CCN(C(=O)C2CC2)CC1 [Olaparib] (first compound max 10 µM, 7x7, partner max 10 µM) | 0.225 | 0.376 | 0.201 | 0.259 | -0.028 | -0.057 | -0.0521 | -0.0079 | -0.0349 | -0.0608 | -0.019 | 0.0337 | -0.037 | -0.0158 | -0.0341 | -0.0649 | 0.0055 | -0.0306 | -0.0355 | -0.088
Cc1nc(Nc2ncc(C(=O)Nc3c(C)cccc3Cl)s2)cc(N2CCN(CCO)CC2)n1 [Dasatinib] + CC(=O)Nc1cccc(-n2c(=O)n(C3CC3)c(=O)c3c(Nc4ccc(I)cc4F)n(C)c(=O)c(C)c32)c1 [Trametinib] (first compound max 2 µM, 7x7, partner max 1 µM) | 0.487 | 0.862 | 0.715 | 0.261 | -0.0272 | 0.0024 | -0.0528 | 0.123 | 0.0217 | -0.018 | -0.0494 | -0.0801 | -0.0139 | -0.0715 | -0.0794 | 0.123 | -0.039 | -0.0878 | -0.0429 | -0.0561
COc1cc2ncnc(Nc3ccc(F)c(Cl)c3)c2cc1OCCCN1CCOCC1 [Gefitinib] + CC(C)n1c(=O)n(C)c2cnc3cc(F)c(-c4ccc(OCCCN5CCCCC5)nc4)cc3c21 [AZD1390] (first compound max 10 µM, 7x7, partner max 0.3 µM) | 0.0368 | 0.471 | 0.263 | 0.0388 | -0.0347 | -0.0499 | -0.0544 | -0.0956 | -0.0846 | -0.0443 | -0.0645 | -0.0347 | -0.0614 | -0.0726 | -0.0393 | -0.0264 | -0.0831 | -0.0752 | -0.0599 | -0.0696
COc1cc2c(cc1OCCCCCOc1cc3c(cc1OC)C(=O)N1C=C(C)C[C@H]1C=N3)N=C[C@@H]1CC(C)=CN1C2=O [SG3199] + O=C(c1cc(Cc2n[nH]c(=O)c3ccccc23)ccc1F)N1CCN(C(=O)C2CC2)CC1 [Olaparib] (first compound max 0.001 µM, 7x7, partner max 10 µM) | 0.134 | 0.175 | 0.0857 | 0.134 | -0.0309 | -0.0156 | -0.0319 | -0.0469 | -0.0314 | -0.0494 | -0.0207 | 0.0391 | -0.0308 | -0.0312 | -0.0444 | -0.0438 | 0.0051 | -0.013 | -0.0482 | -0.0537
C[C@@H](c1ccc2nccn2c1)n1nnc2ncc(-c3cnn(C)c3)nc21 [Savolitinib] + CC1(C)CCC(CN2CCN(c3ccc(C(=O)NS(=O)(=O)c4ccc(NCC5CCOCC5)c([N+](=O)[O-])c4)c(Oc4cnc5[nH]ccc5c4)c3)CC2)=C(c2ccc(Cl)cc2)C1 [Venetoclax] (first compound max 1 µM, 7x7, partner max 1 µM) | 0.159 | 0.0649 | 0.144 | 0.17 | -0.0525 | -0.0193 | -0.0549 | -0.0307 | -0.0597 | -0.0257 | -0.0284 | -0.0928 | -0.0401 | -0.0736 | -0.0907 | -0.0122 | -0.0361 | -0.0611 | -0.0476 | -0.0443
C[C@@H](c1ccc2nccn2c1)n1nnc2ncc(-c3cnn(C)c3)nc21 [Savolitinib] + Cc1c2c(nn1C)CSCc1cc(n(C)n1)CSc1cc(c3ccccc3c1)OCCCc1c(C(=O)O)n(C)c3c-2c(Cl)ccc13 [AZD5991] (first compound max 1 µM, 7x7, partner max 1 µM) | 0.2 | 0.26 | 0.159 | 0.176 | -0.0556 | -0.0467 | -0.0419 | 0.065 | -0.0536 | -0.0209 | -0.0296 | -0.0457 | -0.0074 | -0.0475 | -0.0247 | -0.0238 | -0.0187 | -0.0511 | -0.0509 | -0.0479
